# Biological target: T1, Dimer of Gag-Pol polyprotein [489-587] (Human immunodeficiency virus 1, UniProt P12497)
# T1 construct: 489-587
# Test: Protease Inhibition Assay
# Method: For determination of IC50 values, HIV-1 protease was added to assay buffer containing inhibitor and the substrate (H-His-Lys-Ala-Arg-Val-Leu- (p-NO2) Phe-Glu-Ala-norleucine-Ser-NH2). The Leu- (p-NO2) Phe bond of the substrate was cleaved by the enzyme, and the substrate and products were separated by reversed-phase HPLC. Absorbance was measured at 220 nm, peak areas were determined, and percentage conversion to product was calculated.
Structure (SMILES),"IC50 (pH 4.7, 37 °C)",IC50
"CCCC1(c2ccccc2)CC(=O)C(SCCc2ccccc2)C(=O)O1 (stereo unspecified) [5,6-Dihydro-4-hydroxy-6-phenyl-3-[(2-phenylethyl)thio]-6-propyl-2H-pyran-2-one]",5100 nM,
"O=C1CC(c2ccccc2)(c2ccncc2)OC(=O)C1SCCc1ccccc1 (stereo unspecified) [5,6-Dihydro-4-hydroxy-6-phenyl-3-[(2-phenylethyl)thio]-6-pyridin-4-yl-2H-pyran-2-one]",,790 nM
"O=C1CC(c2ccccc2)OC(=O)C1SCc1ccccc1 (stereo unspecified) [5,6-Dihydro-4-hydroxy-6-phenyl-3-[(phenylmethyl)thio]-2H-pyran-2-one]",8900 nM,
"CCCC1(c2ccccc2)CC(=O)C(SCc2ccccc2)C(=O)O1 (stereo unspecified) [5,6-Dihydro-4-hydroxy-6-phenyl-3-[(phenylmethyl)thio]-6-propyl-2H-pyran-2-one]",290 nM,
"O=C1CC(CCc2ccccc2)(c2ccccc2)OC(=O)C1Sc1ccccc1 (stereo unspecified) [5,6-Dihydro-4-hydroxy-6-phenyl-6-(2-phenylethyl)-3-(phenylthio)-2H-pyran-2-one]",130 nM,
"CC(C)c1ccc(C(C)C)c(SC2C(=O)CC(CCc3ccccc3)(c3ccccc3)OC2=O)c1 (stereo unspecified) [5,6-Dihydro-4-hydroxy-6-phenyl-6-(2-phenylethyl)-3-[(2,5-diisopropylphenyl)sulfanyl]-2H-pyran-2-one]",,14 nM
"O=C1CC(CCc2ccccc2)(c2ccccc2)OC(=O)C1SCCc1ccccc1 (stereo unspecified) [5,6-Dihydro-4-hydroxy-6-phenyl-6-(2-phenylethyl)-3-[(2-phenylethyl)thio]-2H-pyran-2-one]",51 nM,
"CCCCCCC1(c2ccccc2)CC(=O)C(SCCc2ccccc2)C(=O)O1 (stereo unspecified) [5,6-Dihydro-6-hexyl-4-hydroxy-6-phenyl-3-[(2-phenylethyl)thio]-2H-pyran-2-one]",112 nM,
"NC(=O)CCCCC1(c2ccccc2)CC(=O)C(SCCc2ccccc2)C(=O)O1 (stereo unspecified) [5-{4-hydroxy-6-oxo-2-phenyl-5-[(2-phenylethyl)sulfanyl]-3,6-dihydro-2H-pyran-2-yl}pentanamide]",,338 nM
"O=C(O)CCCCC1(c2ccccc2)CC(=O)C(SCCc2ccccc2)C(=O)O1 (stereo unspecified) [5-{4-hydroxy-6-oxo-2-phenyl-5-[(2-phenylethyl)sulfanyl]-3,6-dihydro-2H-pyran-2-yl}pentanoic acid]",5 nM,
"O=C1CC(CC2CCCCC2)(c2ccccc2)OC(=O)C1SCc1ccccc1 (stereo unspecified) [6-(Cyclohexylmethyl)-5,6-dihydro-4-hydroxy-6-phenyl-3-[(phenylmethyl)thio]-2H-pyran-2-one]",137 nM,
"O=C1CC(CC2CCCC2)(c2ccccc2)OC(=O)C1SCc1ccccc1 (stereo unspecified) [6-(Cyclopentylmethyl)-5,6-dihydro-4-hydroxy-6-phenyl-3-[(phenylmethyl)thio]-2H-pyran-2-one]",88 nM,
"O=C1CC(CC2CCCC2)(c2ccccc2)OC(=O)C1SCCc1ccccc1 (stereo unspecified) [6-(cyclopentylmethyl)-4-hydroxy-6-phenyl-3-[(2-phenylethyl)sulfanyl]-5,6-dihydro-2H-pyran-2-one]",510 nM,
"CCCCC1(c2ccccc2)CC(=O)C(SCCc2ccccc2)C(=O)O1 (stereo unspecified) [6-Butyl-5,6-dihydro-4-hydroxy-6-phenyl-3-[(2-phenylethyl)thio]-2H-pyran-2-one]",400 nM,
"Cc1ccc(C(C)C)c(SC2C(=O)C[C@](CCc3ccccc3)(c3ccccc3)OC2=O)c1 (stereo partly drawn) [(6R)-4-hydroxy-3-{[5-methyl-2-(propan-2-yl)phenyl]sulfanyl}-6-phenyl-6-(2-phenylethyl)-5,6-dihydro-2H-pyran-2-one]",,130 nM
"Cc1ccc(C(C)C)c(SC2C(=O)C[C@@](CCc3ccccc3)(c3ccccc3)OC2=O)c1 (stereo partly drawn) [(6S)-4-hydroxy-3-{[5-methyl-2-(propan-2-yl)phenyl]sulfanyl}-6-phenyl-6-(2-phenylethyl)-5,6-dihydro-2H-pyran-2-one]",,6 nM

# Source: BindingDB's records for doi:10.1021/jm970615f (Parke-Davis Pharmaceutical Research, 1997)
